Holding throughout (format): cell-based
Experiment [1] concerns non-neoplastic cell line (HK2). The experiment in a line: Cell viability, HK2. The settings on record: Table 5; read-out: IC50 HK2. Here is the method: (§1) In an embodiment, the antiproliferative activity of the compounds was further determined against renal carcinoma cell lines and non-neoplastic kidney cell line.
(§2) In an embodiment, three human breast cancer cell lines Hs578T, MDA-MB-468 and MCF-7, and a normal breast cell line MCF-10A, were obtained from ATCC (American Type Culture Collection). The cancer cell lines were cultured in Dulbecco's modified Eagle medium, 4.5 g/l glucose (DMEM, Gibco) supplemented with 10% heating inactivated Fetal Bovine Serum (FBS, Gibco) and 1% antibiotic solution (Penicillin-Streptomycin, Gibco). The normal cell line was cultured in Dulbecco's Modified Eagle Medium: Nutrient Mixture F-12 (DMEM/F12, Gibco) supplemented with 5% heating inactivated FBS (Gibco), 1% antibiotic solution (Penicillin-Streptomycin, Gibco), 1% steroid hormone (Hydrocortisone, Sigma-Aldrich), 0.1% peptide hormone (Insulin, Sigma-Aldrich) and 0.01% protein complex (Cholera Toxin, Gibco). Two distinct human acute myeloid leukemia (AML) cell lines, HL-60 (FAB M2) and KG-1 (erythroleukemia-FAB M6), and one human lymphoblastic leukemia (ALL) cell line, Jurkat (T cell type), were also used. These three cell lines were obtained from German Collection of Microorganisms and Cell cultures (DMSZ®, Deutsche Sammlung von Mikroorganismen and Zellkulturen in German). Cells were cultured in RPMI 1640 medium (Biochrom®-Merck Millipore) supplemented with 10% heating inactivated FBS (Biochrom®-Merck Millipore) and 1% antibiotic/antimitotic mixture (Invitrogen®). Three human glioblastoma (GBM) cell line models, two established and commercially available cell lines (U87MG and GAMG, kind gift from Rui M. Reis) and one primary GBM culture (GLIB) were also used. GBM cells were cultures in DMEM (Biochrom-Merck Millipore), all supplemented with 10% FBS. The Renal cell carcinoma cell lines A498, 786-O, Caki-2 and HK2 were obtained from ATCC. The cancer cell line A498 was cultured in MEM medium (Biochrom®-Merck Millipore), 786-O was cultured in RPMI 1640 medium (Biochrom®-Merck Millipore), Caki-2 was cultured in Mc Coys medium (Biochrom®-Merck Millipore) and HK2 was cultured in RPMI 1640 medium (Biochrom®-Merck Millipore). All the media were supplemented with 10% heat inactivated FBS (Biochrom®-Merck Millipore) and 1% antibiotic/antimitotic mixture (Invitrogen®). All cells were grown in a humidified incubator at 37° C. and 5% CO2. For all assays, DMSO (Dimethyl Sulfoxide, Sigma-Aldrich) controls were used.
(§3) In an embodiment, cell viability assays were performed. MCF-7, Hs578T and MCF-10A cells were plated in triplicate in 96-multiwell culture plates, at 3000 cells per mL, or 5000 cells per mL for MDA-MB-468 (100 μL/well). The cells were then allowed to adhere in complete medium, over a period of 18-20 hours. Cells were subsequently treated with 7 different concentrations (from 0.1 to 40 μM or 5 to 60 μM) of compounds or control in fresh medium. HL-60, KG-1 and Jurkat cell lines were plated in 96-multiwell culture plates at 50.000 cells/100 μL per well and treated with different concentrations (from 0.001 to 2 μM) of the compounds described (or control). Cells were plated, in triplicate, at an initial density of 2000 cells/well for GAMG, 4000 cells/well for GL18 and 6000 cells/well for U87MG, in 96-well plates, and allowed to adhere for 18-20 hours. Cells were then treated with different concentrations of the compounds (0.005 to 100 μM) or with control. A498 and 786-O cells were plated at 2000 cells per mL, Caki-2 cells were plated at 3000 cells per mL and HK2 cells were plated at 2000 cells per mL in triplicate, in 96-multiwell culture plates (100 μL/well), and allowed to adhere over a period of 18-20 hours in complete medium. The cells were then treated with 7 different concentrations (from 0.1 to 40 μM or 5 to 60 μM) of compounds or control in fresh medium. […]

Experiment [2] relates to TNBC cell line MDA-MB-231. The experiment in a line: Cell viability assay, MDA-MB-231. The conditions noted are these: Homo sapiens.
Experiment [3] concerns non-neoplastic cell line MCF-10A. The experiment in a line: Cell viability assay (MTS), MCF-10A. The settings on record: Homo sapiens, 72 h incubation. Here is the method: (§4) In an embodiment, the cell growth inhibition and IC50 values of the synthesised and isolated chromene-based compounds were determined as part of the evaluation of the antiproliferative activity of the isolated agents. A complete study on the structure-activity relationship was performed for all the synthesised compounds. The antiproliferative activity against MCF-7 breast cancer cell lines were analysed. […] The non-neoplastic cell line MCF-10A was also used to determine the selectivity of the compounds for the tumour cells. For compounds with an IC50 value (concentration required to reduce cell viability by 50%) higher than 20 μM, the IC50 value was not determined. Selectivity index (SI) was calculated in order to evaluate the cytotoxicity of the tested compounds.
as §2
(§5) In an embodiment, cell viability assays were performed. MCF-7, Hs578T and MCF-10A cells were plated in triplicate in 96-multiwell culture plates, at 3000 cells […], or 5000 cells […] for MDA-MB-468 (100 μL/well). The cells were then allowed to adhere in complete medium, over a period of 18-20 hours. Cells were subsequently treated with 7 different concentrations (from 0.1 to 40 μM or 5 to 60 μM) of compounds or control in fresh medium. HL-60, KG-1 and Jurkat cell lines were plated in 96-multiwell culture plates at 50.000 cells/100 μL per well and treated with different concentrations (from 0.001 to 2 μM) of the compounds described (or control). Cells were plated, in triplicate, at an initial density of 2000 cells/well for GAMG, 4000 cells/well for GL18 and 6000 cells/well for U87MG, in 96-well plates, and allowed to adhere for 18-20 hours. […]

Experiment [4] deals with TNBC cell line Hs578t. The experiment in a line: Cell viability assay (MTS), Hs578t. The settings on record: Homo sapiens, Hs-578T; 72 h incubation.
Text: In an embodiment, for a comparison study, monomers and respective dimers were selected and further evaluated in Hs578t and MDA-MB-468 breast cell lines. […] These cell lines correspond to the basal-like subtype of breast cancer, included in the known triple negative subtype, since they are negative for Estrogen receptor (ER), progesterone receptor (PR) and Human epidermal growth factor receptor 2 (HER2) molecular markers. The clinical behaviour of these breast cancer subtype is very aggressive and there is still no specific molecular therapy available.
as §2
In an embodiment, cell viability assays were performed. MCF-7, Hs578T and MCF-10A cells were plated in triplicate in 96-multiwell culture plates, at 3000 cells […], or 5000 cells […] for MDA-MB-468 (100 μL/well). The cells were then allowed to adhere in complete medium, over a period of 18-20 hours. Cells were subsequently treated with 7 different concentrations (from 0.1 to 40 μM or 5 to 60 μM) of compounds or control in fresh medium. HL-60, KG-1 and Jurkat cell lines were plated in 96-multiwell culture plates at 50.000 cells/100 μL per well and treated with different concentrations (from 0.001 to 2 μM) of the compounds described (or control). Cells were plated, in triplicate, at an initial density of 2000 cells/well for GAMG, 4000 cells/well for GL18 and 6000 cells/well for U87MG, in 96-well plates, and allowed to adhere for 18-20 hours. Cells were then treated with different concentrations of the compounds (0.005 to 100 μM) or with control. […]

Experiment [5] concerns renal carcinoma cell line A498. The experiment in a line: Cell viability (sulforhodamine B), A498. The conditions noted are these: Homo sapiens, Table 5. The procedure: as §1, §2, §3
The subject of experiment [6] is renal carcinoma cell line 786-O. The experiment in a line: Cell viability (sulforhodamine B), 786-O. The settings on record: Homo sapiens, 786-0; Table 5. The procedure: as §1, §2, §3
Experiment [7] has as its system renal carcinoma cell line Caki-2. The experiment in a line: Cell viability (sulforhodamine B), Caki-2. The settings on record: Homo sapiens, Table 5. The procedure:
as §1, §2, §3

The subject of experiment [8] is breast cancer cell line MCF-7. The experiment in a line: Cell viability assay (MTS), MCF-7. The settings on record: Homo sapiens, MCF7; 72 h incubation. The procedure:
as §4, §2, §5

The subject of experiment [9] is renal carcinoma cell lines. The experiment in a line: First screen against renal carcinoma cell lines. The settings on record: IC50 determination not pursued.
Text: as §1

Structures are written as SMILES.

For `COc1cccc2c1Oc1nc(-c3cccc(F)c3)[nH]c1C2` [MC349, 2-(3-fluorophenyl)-5-methoxy-3,9-dihydrochromeno[2,3-d]imidazoles], the IC50 – broadly, the midpoint of a concentration-inhibition curve – stood at 2630 nM in experiment [1]; 1230 nM in experiment [2]; 2300 nM in experiment [3]; 640 nM in experiment [4]; 1120 nM in experiment [5]; 446 nM in experiment [6]. Also, the results for the IC50 in experiment [7] and in [8] were 440 nM and 770 nM, respectively.
For `COc1ccc2c(c1)Cc1[nH]c(-c3cc(OC)ccc3O)nc1O2` [Compound M1220], the “biological activity in a first screen” value in [9] is given as “did not demonstrate any biological activity”. The figures for the half-inhibitory concentration (IC50) in experiment [3], in experiment [4] and in experiment [8] were greater than 30000 nM, greater than 30000 nM and 5850 nM, respectively.
`Oc1ccccc1-c1nc2c([nH]1)Cc1ccccc1O2` [Compound M1159]: the IC50 is 5610 nM in [1]; 10400 nM in experiment [2]; greater than 30000 nM in experiment [3]; 13600 nM in [5]; 3040 nM in [6]; 3680 nM in experiment [8].
In the case of `Oc1ccc(Br)cc1-c1nc2c([nH]1)Cc1cc(Br)ccc1O2` [Compound M1221], the “biological activity in a first screen” value in experiment [9] is recorded as “did not demonstrate any biological activity”. In addition, the IC50 in [2] and in [8] was greater than 30000 nM throughout.
With `COc1cccc(-c2nc3c([nH]2)Cc2cccc(OC)c2O3)c1O` [Compound M955], the “biological activity in a first screen” value in experiment [9] is “did not demonstrate any biological activity”. In addition, the IC50 in experiment [2] is 15700 nM; in experiment [3], greater than 30000 nM; in experiment [4], greater than 20000 nM; in experiment [8], 4150 nM.
Take `Oc1ccc(Cl)cc1-c1nc2c([nH]1)Cc1cc(Cl)ccc1O2` [Compound M1143]: the “biological activity in a first screen” value in [9] is “did not demonstrate any biological activity”. The half-inhibitory concentration (IC50) in experiment [2], in [4] and in [8] was greater than 30000 nM throughout.
As for `COc1cccc2c1Oc1nc(-c3ccc(Cl)cc3)[nH]c1C2` [MC412, 2-(4-chlorophenyl)-5-methoxy-3,9-dihydrochromeno[2,3-d]imidazoles], the IC50 in experiment [1] turned out to be 1630 nM; in [2] it was 1670 nM; in experiment [3] it was 1740 nM; in experiment [4], 980 nM; in experiment [5] it was 290 nM; in [6] it was 32 nM. Moreover, the IC50 in [7] turned out to be 39 nM; in experiment [8], 440 nM.
In the case of `COc1cccc2c1Oc1nc(-c3cccc(O)c3)[nH]c1C2` [MC359, 3-(5-methoxy-3,9-dihydrochromeno[2,3-d]imidazol-2-yl)phenol], the IC50 in [1] was 5290 nM; in [2], 2700 nM; in experiment [3], 6660 nM; in [4], 3480 nM; in experiment [5] it was 2450 nM; in [6], 3210 nM. The IC50 came to 2340 nM in experiment [7] and 2820 nM in experiment [8].
